Measured values: publication PMC7555119, “Characterization of Novel Synthetic Polyphenols: Validation of Antioxidant and Vasculoprotective Activities” (Antioxidants, 2020)
Where two headings read alike, the source gives them in different places.

Experiments:
[1] = DPPH free radical scavenging assay (RSA)
Procedure: For the 2,2′-diphenylpicrylhydrazyl (DPPH) assay, antioxidant compounds were dissolved in ethanol with a stock concentration of 4 mM and stirred for 24 h. DPPH (Alfa Aesar) was also dissolved in ethanol at 0.127 mM. Different compound solutions were prepared by serial dilutions of each stock solution ([…]). […] Amounts of 80 µL of each solution and 80 µL of DPPH were added in a 96-well plate. The absorbance was measured at different times (10, 20 and 30 min and 1 and 2 h) by a Multi-Detection Microplate Reader Synergy HT (λMAX = 515 nm). Radical scavenging activity (RSA, %) was calculated using Equation (1) (1) RSA(%)=ADPPH−AEXTRACT/ADPPH·100 where AEXTRACT and ADPPH correspond to the absorbance of DPPH with and without the extracts, respectively. Eight replicates were used for each compound and results were expressed as mean value ± standard deviation. The RSA half-maximal inhibitory concentration (IC50) values were calculated from the relationship curve of RSA versus concentrations by a non-linear fit using the software GraphPad Prism 7.

[2] = Stability in aqueous media (H2O/acetonitrile 80:20, HPLC-MS); format: physicochemical
Source text: The solutions were checked by HPLC-MS at regular intervals of time for 60 days. […] The rest of the compounds suffered progressive degradation, with complete disappearance from the solution after 10 or 20 days. The most unstable polyphenol derivatives were 4 and 10 (Figure S1), having both two p-dihydroxy substitutions in the phenyl rings, which points to the rapid and easy oxidation to the p-hydroquinone. From the four compounds with three phenyl rings, only one was stable in aqueous solution (17).

[3] = Oxygen radical absorbance capacity (ORAC) assay
Procedure: The ORAC assay was performed following Ou et al., as modified by Garcés-Rimón et al.. All samples and reagents were dissolved in phosphate buffer (75 mM; pH 7.4). […] The fluorescence was recorded at 40 °C every 55 s for 95 min using a fluorimeter (SpectraMax M2; Molecular Devices, California, USA), with excitation and emission wavelengths of 480 and 520 nm, respectively. All samples were tested in triplicate. ORAC values were expressed as μmol of Trolox equivalents (TE)/μmol of pure compound.

[4] = ABTS radical cation scavenging assay
Procedure: The 2,2′-azino-bis (3-ethylbenzothiazoline-6-sulfonic acid) diammonium salt (ABTS) assay was performed according to Re et al. and modified by Oki et al. for its use in microplates. Samples were diluted in methanol. An ABTS^•+ stock solution was prepared by adding 44 μL of potassium persulfate (140 mmol/L) to a 2.5 mL ABTS^•+ aqueous solution (7 mmol/L). The working solution of the radical ABTS^+ was prepared by diluting the stock solution 1:75 (v/v) in a sodium phosphate buffer (5 mmol/L, pH 7.4) to obtain an absorbance value of 0.7±0.02 at 734 nm. Samples (30 μL) were added to 270 μL of the working solution of ABTS^•+ in a microplate. Absorbance was measured at 734 nm and 30 °C for 20 min, every 5 min in a Synergy HT plate spectrophotometer (Biotek Instruments, Winoosky, VT, USA). A calibration curve was made with Trolox (20–250 μM). All samples were analyzed in triplicate. Results were expressed in μmol TE/μmol of pure compound, as for the ORAC assays.

[5] = test system: Saccharomyces cerevisiae strain BY4741; assay: In vivo antioxidant capacity in stressed yeasts (growth recovery, survivors); format: cell-based
Procedure: Saccharomyces cerevisiae haploid strain BY4741 was used as described previously. Briefly, 20 μL of glycerol stock culture was revived in 5ml of YPD medium (1% yeast extract, 2% bacteriological peptone and 2% dextrose) at 28 °C, with shaking (210 rpm). Fifty microliters of 20-h-old culture was used to inoculate fresh 5ml YPD (control medium) or 5 mL of oxidative stress medium (YPOxD: YPOxD; 1% yeast extract, 2% bacteriological peptone, 1% dextrose and 3% H2O2). Stress (and control) was conducted during 16h at 28 °C, with shaking (220 rpm).
Growth rate was determined from growth kinetics using the BioScreen C plate-reader system (OY Growth Curves Ab Ldt., Helsinki, Finland). Stressed yeast cultures (16 h old) were used to inoculate 200 µl of fresh media to an initial OD595 of 0.05–0.07, being distributed in 100-well honeycomb plates (Oy Growth Curves) in triplicate per each condition (each different dose of each compound). Plates were then incubated at 28 °C for 72h, with shaking (High force), taking OD measurement each 15 min in the Bioscreen C. Maximum growth rate (μmax) and biomass production (carrying capacity) were determined in R using ‘Growthcurver’ package version 0.3 [24]. Growth curves were constructed in EXCEL, represented as mean ± SEM (standard error of mean). […] In addition, to measure survival after oxidative stress and antioxidant effectiveness of each compound, yeast cells from each challenge were serially diluted in 96-well plates, and each dilution was spotted (with a 8 × 6 stainless steel replica platter from SIGMA) in triplicate to determine viable colonies after 24–48 h at 28 °C. Survivors (mean ± SEM) were compared between treatments with one-way ANOVA, Fisher’s LSD test, with alpha at 0.05 for significance.

Structure (SMILES): O=C(Nc1ccc(O)cc1)N(c1ccc(O)cc1)c1ccc(O)cc1 [Compound 17, N,N-bis(4-Hydroxyphenyl)-N′-(4′-hydroxyphenyl)urea]
- concentration down to which RSA ability is maintained independently of time ([1]; 10 min to 2 h): 0.25 mM
- RSA capacity fold higher compared to resveratrol ([1]; after 10 min, from IC50): 3.7 fold
- IC50 ([1]; compound needed to reach 50% RSA after 10 min, read-out: DPPH PSA IC50 10 min): 17.9 µM
- RSA percentage ([1]; highest concentration 2 mM, 10 min): ~72%
- IC50 ([1]; read-out: DPPH PSA IC50 2 h, compound needed to reach 50% RSA after 2 h): 9.6 µM
- stability in aqueous media ([2]; H2O/acetonitrile (80:20%), room temperature, checked for 60 days): sufficiently stable
- Aqueous Stability (%) ([2]; remaining pure compound (HPLC) after two months at room temperature in aqueous solution (+20% acetonitrile)): 93%
- ORAC [3]: 19.4 ± 0.7 µmol of trolox/µmol of pure compound
- ORAC ([3]; TE: Trolox Equivalents): > 19 TE
- ABTS [4]: 3.57 ± 0.00 µmol of trolox/µmol of pure compound
- growth rate (r) recovery of stressed yeast ([5]; H2O2-stressed BY4741, doses 2, 20 and 40 μg): best performing antioxidant
- carrying capacity (k) recovery of stressed yeast ([5]; H2O2-stressed BY4741, each dose tested): able to recover the carrying capacity of yeast cells similarly as control antioxidants
